Changes are numbered by the printed parent chain. “And” between values parts separate entries of the source, which are not always exact repeats. Equal entries are not always repeated. Where two headings read alike, the source gives them in different places.
Tests used:
PotF_Abox = target: T1, PotF_Abox (Escherichia coli, UniProt P31133, F276W); test: ITC, PotF_Abox (F276W); type: binding; settings: for n: ITC binding stoichiometry; for n / Kd / ΔG / ΔH / −TΔS: 293 K, PotF_Abox; for Kd: 50 mM Tris pH 8, 300 mM NaCl, biological triplicates
T1 construct: without the N-terminal signal peptide; made in house; host or cells: E. coli BL21 (DE3)
T1 sequence (P31133 27-370 F276W): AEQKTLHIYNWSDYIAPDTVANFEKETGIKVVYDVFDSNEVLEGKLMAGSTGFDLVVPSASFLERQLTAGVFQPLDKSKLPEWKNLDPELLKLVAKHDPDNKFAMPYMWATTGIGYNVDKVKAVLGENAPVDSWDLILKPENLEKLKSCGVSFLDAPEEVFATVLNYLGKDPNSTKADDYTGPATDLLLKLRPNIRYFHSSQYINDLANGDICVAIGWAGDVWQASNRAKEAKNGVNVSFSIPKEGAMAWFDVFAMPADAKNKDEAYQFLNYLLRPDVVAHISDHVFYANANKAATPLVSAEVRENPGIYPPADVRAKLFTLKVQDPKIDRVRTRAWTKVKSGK
Experimental: (§1) Ligands were always freshly prepared in the exact same buffer as was used for the size exclusion run. Samples were degassed, and temperature was equilibrated using a degassing station (TA Instruments). About 400 μl protein sample of different concentrations (Table S5) depending on affinity was transferred into the sample cell of a nanoITC (TA Instruments), and 50 μl of about tenfold concentrated ligand solution was loaded into the injection needle. Multiple injection measurements were carried out at 293 K, 300 rpm stirring rate, and 250 s spacings between each 2 μl injection. The heat quantity past injection was determined by integration of the measured peaks. Every protein–ligand combination was measured as biological triplicate. Subtraction of heat of dilution measurements, peak integration, and one site binding fits were done with NanoAnalyze (TA Instruments). Reported errors are the errors between fits of the measured triplicates.

PotF_Abox_Dist = target: T2, PotF_Abox_Dist (Escherichia coli, UniProt P31133, A182D/F276W/L348Q/S87Y); test: ITC, PotF_Abox_Dist (S87Y, A182D, L348Q, F276W); type: binding; settings: 293 K
T2 construct: without the N-terminal signal peptide; made in house; host or cells: E. coli BL21 (DE3)
T2 sequence (P31133 27-370 S87Y/A182D/F276W/L348Q): T1 sequence (P31133 27-370 F276W) with S61Y, A156D, L322Q
Experimental: as §1

PotF/D–E39D–F88L–S247D = target: T3, PotF/D–E39D–F88L–S247D (Escherichia coli, UniProt P31133, A182D/F276W/F88L/L348Q/S38T/S87Y); test: ITC, PotF/D–E39D–F88L–S247D; type: binding; settings: 293 K; for n: ITC binding stoichiometry; for ΔG / ΔH / −TΔS / Kd: ITC; for Kd: 50 mM Tris pH 8, 300 mM NaCl, biological triplicates
T3 construct: without the N-terminal signal peptide; made in house; host or cells: E. coli BL21 (DE3)
T3 sequence (P31133 27-370 S38T/S87Y/F88L/A182D/F276W/L348Q): T1 sequence (P31133 27-370 F276W) with S12T, S61Y, F62L, A156D, L322Q
Experimental: as §1

[1] = target: T4, PotF/D–E39D–Y87S–F88Y–S247D (Escherichia coli, UniProt P31133, A182D/F276W/F88Y/L348Q/S38T); test: ITC, PotF/D–E39D–Y87S–F88Y–S247D; type: binding; settings: 293 K; for n: ITC binding stoichiometry; for ΔG / ΔH / −TΔS / Kd: ITC
T4 construct: without the N-terminal signal peptide; made in house; host or cells: E. coli BL21 (DE3)
T4 sequence (P31133 27-370 S38T/F88Y/A182D/F276W/L348Q): T1 sequence (P31133 27-370 F276W) with S12T, F62Y, A156D, L322Q
Experimental: as §1

PotF = target: PotF; design: method as in PMID 33406388; settings: PotF wildtype, cited from earlier work
PotF_Abox_Prox = target: T5, PotF_Abox_Prox (Escherichia coli, UniProt P31133, D247S/D39E/F276W/S38T); test: ITC, PotF_Abox_Prox (S38T, D39E, D247S, F276W); type: binding; settings: 293 K, 50 mM Tris pH 8, 300 mM NaCl, biological triplicates
T5 construct: without the N-terminal signal peptide; made in house; host or cells: E. coli BL21 (DE3)
T5 sequence (P31133 27-370 S38T/D39E/D247S/F276W): T1 sequence (P31133 27-370 F276W) with S12T, D13E, D221S
Experimental: as §1

[2] = ITC, PotF_Abox compared with wildtype PotF
[3] = ITC, 50 mM Tris pH 8, 300 mM NaCl, biological triplicates

SMILES: NCCCCN [PUT, putrescine]
- n (PotF_Abox): 0.90 ± 0.03
- Kd (PotF_Abox; ITC): ~0.21 µM and 0.21 µM
- ΔG (PotF_Abox; ITC): -8.97 ± 0.10 kcal/mol
- ΔH (PotF_Abox; ITC): -22.25 ± 0.77 kcal/mol
- −TΔS (PotF_Abox; ITC): 13.28 ± 0.75 kcal/mol
- ΔΔH (PotF_Abox; [2]): +0.77 kcal/mol
- KD (PotF_Abox_Dist; [3]): not detectable
- n (PotF/D–E39D–F88L–S247D): 0.90 ± 0.01
- ΔG (PotF/D–E39D–F88L–S247D): -4.97 ± 0.13 kcal/mol
- ΔH (PotF/D–E39D–F88L–S247D): -5.54 ± 0.73 kcal/mol
- −TΔS (PotF/D–E39D–F88L–S247D): 0.57 ± 0.86 kcal/mol
- Kd (PotF/D–E39D–F88L–S247D): 203 ± 43.1 µM
- n [1]: 0.90 ± 0.01
- ΔG [1]: -5.51 ± 0.02 kcal/mol
- ΔH [1]: -4.15 ± 0.05 kcal/mol
- −TΔS [1]: -1.36 ± 0.05 kcal/mol
- Kd ([1]; 50 mM Tris pH 8, 300 mM NaCl, biological triplicates, read-out: KD): 77.9 ± 3.17 µM
- Kd (PotF; ITC): 0.07 ± 0.04 µM
- ΔG (PotF; ITC): -9.74 ± 0.40 kcal/mol
- ΔH (PotF; ITC): -23.02 ± 0.12 kcal/mol
- −TΔS (PotF; ITC): 13.28 ± 0.52 kcal/mol
- Kd (PotF): ~0.068 µM
- KD (PotF_Abox_Prox): no binding

SMILES: NCCCCNCCCN [SPD, spermidine]
- n (PotF_Abox): 0.96 ± 0.06
- Kd (PotF_Abox; ITC): ~11 µM and 11.1 µM
- ΔG (PotF_Abox; ITC): -6.65 ± 0.04 kcal/mol
- ΔH (PotF_Abox; ITC): -6.25 ± 0.16 kcal/mol
- −TΔS (PotF_Abox; ITC): -0.40 ± 0.21 kcal/mol
- Δ(−TΔS) (PotF_Abox; [2]): +2.02 kcal/mol
- n (PotF_Abox_Dist; ITC binding stoichiometry): 0.94 ± 0.00
- ΔG (PotF_Abox_Dist; ITC): -6.85 ± 0.02 kcal/mol
- ΔH (PotF_Abox_Dist; ITC): -5.28 ± 0.07 kcal/mol
- −TΔS (PotF_Abox_Dist; ITC): -1.57 ± 0.09 kcal/mol
- Kd (PotF_Abox_Dist; [3]): ~7.8 µM and 7.8 µM and 7.77 µM
- n (PotF/D–E39D–F88L–S247D): 0.93 ± 0.01
- ΔG (PotF/D–E39D–F88L–S247D): -7.35 ± 0.09 kcal/mol
- ΔH (PotF/D–E39D–F88L–S247D): -4.19 ± 0.06 kcal/mol
- −TΔS (PotF/D–E39D–F88L–S247D): -3.17 ± 0.10 kcal/mol
- Kd (PotF/D–E39D–F88L–S247D): 3.33 ± 0.53 µM
- n [1]: 0.91 ± 0.02
- ΔG [1]: -8.17 ± 0.17 kcal/mol
- ΔH [1]: -5.46 ± 0.08 kcal/mol
- −TΔS [1]: -2.71 ± 0.16 kcal/mol
- Kd ([1]; read-out: SPD affinity (KD)): 0.84 µM
- Kd (PotF; ITC): 29.7 ± 1.15 µM
- ΔG (PotF; ITC): -6.07 ± 0.02 kcal/mol
- ΔH (PotF; ITC): -3.65 ± 0.06 kcal/mol
- −TΔS (PotF; ITC): -2.42 ± 0.04 kcal/mol
- KD (PotF_Abox_Prox): very low
